Reference: BindingDB's records for doi:10.1021/jm0603116 (Infinity Pharmaceuticals, 2006)
pEC50: −log10 of the molar value.

Target: Endoplasmin (Canis lupus familiaris, UniProt P41148)
Assay: Inhibition of BODIPY-AG binding to dog Grp94

Sequence of Endoplasmin (P41148 whole entry): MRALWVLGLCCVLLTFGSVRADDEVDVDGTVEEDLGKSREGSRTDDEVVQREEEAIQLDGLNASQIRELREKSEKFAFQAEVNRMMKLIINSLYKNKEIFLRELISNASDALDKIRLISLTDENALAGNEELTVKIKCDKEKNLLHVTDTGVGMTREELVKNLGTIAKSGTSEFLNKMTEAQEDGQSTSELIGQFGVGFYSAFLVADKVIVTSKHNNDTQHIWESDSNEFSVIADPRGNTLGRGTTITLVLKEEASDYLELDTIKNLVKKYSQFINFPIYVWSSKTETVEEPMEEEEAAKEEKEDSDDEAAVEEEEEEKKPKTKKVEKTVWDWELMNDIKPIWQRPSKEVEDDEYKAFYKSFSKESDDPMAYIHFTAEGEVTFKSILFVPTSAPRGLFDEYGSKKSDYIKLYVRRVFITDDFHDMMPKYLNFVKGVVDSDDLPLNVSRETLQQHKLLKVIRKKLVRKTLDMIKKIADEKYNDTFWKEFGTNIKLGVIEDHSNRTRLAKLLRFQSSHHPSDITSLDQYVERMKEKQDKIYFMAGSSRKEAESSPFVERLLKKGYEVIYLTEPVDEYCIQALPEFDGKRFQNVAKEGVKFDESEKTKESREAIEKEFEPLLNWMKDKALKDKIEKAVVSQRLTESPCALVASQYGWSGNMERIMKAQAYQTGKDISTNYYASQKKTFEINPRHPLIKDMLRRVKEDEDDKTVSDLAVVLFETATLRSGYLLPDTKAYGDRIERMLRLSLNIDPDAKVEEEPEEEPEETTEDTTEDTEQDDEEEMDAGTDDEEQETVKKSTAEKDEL

Compound: CO[C@H]1C=CC=C(C)C(=O)Nc2cc(O)c(N)c(c2O)C=C(C)C[C@H](OC)[C@H](O)[C@@H](C)/C=C(\C)[C@@H]1OC(N)=O [17-amino-17-demethoxygeldanamycin]
- pEC50: 7.32
